In patent US9763445B2, “Safened herbicidal compositions comprising a pyridine carboxylic acid herbicide” (Dow AgroSciences, LLC, priority 2014, dated 2017):

Legend:
kochia (KCHSC) = assay: Postemergence greenhouse trial, % visual injury on kochia; type: in vivo, Kochia scoparia; settings: for % visual injury, Ob / % visual injury, observed (Ob): KCHSC
Outline: (§1)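 Herbicide rates g ae/ha, safener (cloquintocet-mexyl) rates g ai/ha; spray carrier 1.5% v/v crop oil concentrate, 187 L/ha, 2nd–3rd leaf stage. Rating: visual % injury at 20-22 d.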

common poppy (PAPRH) = assay: Postemergence greenhouse trial, % visual injury on common poppy; type: in vivo, Papaver rhoeas; settings: for % visual injury, Ob / % visual injury, observed (Ob): PAPRH
Outline: as §1

wild mustard (SINAR) = assay: Postemergence greenhouse trial, % visual injury on wild mustard; type: in vivo, Sinapis arvensis; settings: for % visual injury, Ob / % visual injury, observed (Ob): SINAR
Outline: as §1

[1] = test system: bird's-eye speedwell (VERPE); assay: Postemergence greenhouse trial, % visual injury on bird's-eye speedwell; type: in vivo, Veronica persica; settings: VERPE
Outline: as §1

[2] = compound 0 g/ha, CQC-m 4.375 g/ha
[3] = compound 0 g/ha, CQC-m 8.75 g/ha
[4] = compound 0 g/ha, CQC-m 17.5 g/ha
[5] = compound 8 0 + CQC-m 4.375 g/ha

CCCCCC(C)OC(=O)COc1ccc(Cl)c2cccnc12 (centres unmarked) [CQC-m, cloquintocet-mexyl, reference compound]
0%: pest or weed control at 4.375 g/ha (kochia (KCHSC); Bassia scoparia, post-emergence, alone, 4.375 g/ha, read-out: % visual injury, Ob) | pest or weed control at 8.75 g/ha (kochia (KCHSC); Bassia scoparia, post-emergence, alone, 8.75 g/ha, read-out: % visual injury, Ob) | pest or weed control at 17.5 g/ha (kochia (KCHSC); Bassia scoparia, post-emergence, alone, 17.5 g/ha, read-out: % visual injury, Ob) | pest or weed control at 20 g/ha (kochia (KCHSC); Bassia scoparia, post-emergence, alone, 20 g/ha, read-out: % visual injury, Ob) | pest or weed control at 35 g/ha (kochia (KCHSC); Bassia scoparia, post-emergence, alone, 35 g/ha, read-out: % visual injury, Ob) | pest or weed control at 40 g/ha (kochia (KCHSC); Bassia scoparia, post-emergence, alone, 40 g/ha, read-out: % visual injury, Ob) | pest or weed control at 70 g/ha (kochia (KCHSC); Bassia scoparia, post-emergence, alone, 70 g/ha, read-out: % visual injury, Ob) | pest or weed control at 80 g/ha (kochia (KCHSC); Bassia scoparia, post-emergence, alone, 80 g/ha, read-out: % visual injury, Ob) | % visual injury, Ob (kochia (KCHSC); 4.375 g/ha, applied alone) | % visual injury, Ob (kochia (KCHSC); 8.75 g/ha, applied alone) | % visual injury, Ob (kochia (KCHSC); 17.5 g/ha, applied alone) | % visual injury, Ob (kochia (KCHSC); 35 g/ha, applied alone) | % visual injury, Ob (kochia (KCHSC); 70 g/ha, applied alone) | % visual injury, Ob (kochia (KCHSC); compound 0, CQC-m 4.375 g/ha) | % visual injury, Ob (kochia (KCHSC); compound 0, CQC-m 8.75 g/ha) | % visual injury, Ob (kochia (KCHSC); compound 0, CQC-m 17.5 g/ha) | % visual injury, Ob (kochia (KCHSC); compound 0, CQC-m 35 g/ha) | % visual injury, Ob (kochia (KCHSC); compound 0, CQC-m 70 g/ha) | % visual injury, Ob (kochia (KCHSC); [2]) | % visual injury, Ob (kochia (KCHSC); [3]) | % visual injury, Ob (kochia (KCHSC); [4]) | % visual injury, Ob (kochia (KCHSC); compound 0 g/ha, CQC-m 35 g/ha) | % visual injury, Ob (kochia (KCHSC); compound 0 g/ha, CQC-m 70 g/ha) | % visual injury, observed (Ob) (kochia (KCHSC); [5]) | % visual injury, observed (Ob) (kochia (KCHSC); compound 8 0 + CQC-m 8.75 g/ha) | % visual injury, observed (Ob) (kochia (KCHSC); compound 8 0 + CQC-m 17.5 g/ha) | % visual injury, observed (Ob) (kochia (KCHSC); compound 8 0 + CQC-m 35 g/ha) | % visual injury, observed (Ob) (kochia (KCHSC); compound 8 0 + CQC-m 70 g/ha) | % visual injury, Ob (common poppy (PAPRH); 4.375 g/ha, applied alone) | % visual injury, Ob (common poppy (PAPRH); 8.75 g/ha, applied alone) | % visual injury, Ob (common poppy (PAPRH); 17.5 g/ha, applied alone) | % visual injury, Ob (common poppy (PAPRH); 35 g/ha, applied alone) | % visual injury, Ob (common poppy (PAPRH); 70 g/ha, applied alone) | % visual injury, Ob (common poppy (PAPRH); compound 0, CQC-m 4.375 g/ha) | % visual injury, Ob (common poppy (PAPRH); compound 0, CQC-m 8.75 g/ha) | % visual injury, Ob (common poppy (PAPRH); compound 0, CQC-m 17.5 g/ha) | % visual injury, Ob (common poppy (PAPRH); compound 0, CQC-m 35 g/ha) | % visual injury, Ob (common poppy (PAPRH); compound 0, CQC-m 70 g/ha) | % visual injury, Ob (common poppy (PAPRH); [2]) | % visual injury, Ob (common poppy (PAPRH); [3]) | % visual injury, Ob (common poppy (PAPRH); [4]) | % visual injury, Ob (common poppy (PAPRH); compound 0 g/ha, CQC-m 35 g/ha) | % visual injury, Ob (common poppy (PAPRH); compound 0 g/ha, CQC-m 70 g/ha) | % visual injury, observed (Ob) (common poppy (PAPRH); [5]) | % visual injury, observed (Ob) (common poppy (PAPRH); compound 8 0 + CQC-m 8.75 g/ha) | % visual injury, observed (Ob) (common poppy (PAPRH); compound 8 0 + CQC-m 17.5 g/ha) | % visual injury, observed (Ob) (common poppy (PAPRH); compound 8 0 + CQC-m 35 g/ha) | % visual injury, observed (Ob) (common poppy (PAPRH); compound 8 0 + CQC-m 70 g/ha) | pest or weed control at 4.375 g/ha (common poppy (PAPRH); Papaver rhoeas, post-emergence, alone, 4.375 g/ha, read-out: % visual injury, Ob) | pest or weed control at 8.75 g/ha (common poppy (PAPRH); Papaver rhoeas, post-emergence, alone, 8.75 g/ha, read-out: % visual injury, Ob) | pest or weed control at 17.5 g/ha (common poppy (PAPRH); Papaver rhoeas, post-emergence, alone, 17.5 g/ha, read-out: % visual injury, Ob) | pest or weed control at 35 g/ha (common poppy (PAPRH); Papaver rhoeas, post-emergence, alone, 35 g/ha, read-out: % visual injury, Ob) | pest or weed control at 70 g/ha (common poppy (PAPRH); Papaver rhoeas, post-emergence, alone, 70 g/ha, read-out: % visual injury, Ob) | pest or weed control at 4.375 g/ha (wild mustard (SINAR); Brassica, post-emergence, alone, 4.375 g/ha, read-out: % visual injury, Ob) | pest or weed control at 8.75 g/ha (wild mustard (SINAR); Brassica, post-emergence, alone, 8.75 g/ha, read-out: % visual injury, Ob) | pest or weed control at 17.5 g/ha (wild mustard (SINAR); Brassica, post-emergence, alone, 17.5 g/ha, read-out: % visual injury, Ob) | pest or weed control at 35 g/ha (wild mustard (SINAR); Brassica, post-emergence, alone, 35 g/ha, read-out: % visual injury, Ob) | pest or weed control at 70 g/ha (wild mustard (SINAR); Brassica, post-emergence, alone, 70 g/ha, read-out: % visual injury, Ob) | % visual injury, Ob (wild mustard (SINAR); 4.375 g/ha, applied alone) | % visual injury, Ob (wild mustard (SINAR); 8.75 g/ha, applied alone) | % visual injury, Ob (wild mustard (SINAR); 17.5 g/ha, applied alone) | % visual injury, Ob (wild mustard (SINAR); 35 g/ha, applied alone) | % visual injury, Ob (wild mustard (SINAR); 70 g/ha, applied alone) | % visual injury, Ob (wild mustard (SINAR); compound 0, CQC-m 4.375 g/ha) | % visual injury, Ob (wild mustard (SINAR); compound 0, CQC-m 8.75 g/ha) | % visual injury, Ob (wild mustard (SINAR); compound 0, CQC-m 17.5 g/ha) | % visual injury, Ob (wild mustard (SINAR); compound 0, CQC-m 35 g/ha) | % visual injury, Ob (wild mustard (SINAR); compound 0, CQC-m 70 g/ha) | % visual injury, Ob (wild mustard (SINAR); [2]) | % visual injury, Ob (wild mustard (SINAR); [3]) | % visual injury, Ob (wild mustard (SINAR); [4]) | % visual injury, Ob (wild mustard (SINAR); compound 0 g/ha, CQC-m 35 g/ha) | % visual injury, Ob (wild mustard (SINAR); compound 0 g/ha, CQC-m 70 g/ha) | % visual injury, observed (Ob) (wild mustard (SINAR); [5]) | % visual injury, observed (Ob) (wild mustard (SINAR); compound 8 0 + CQC-m 8.75 g/ha) | % visual injury, observed (Ob) (wild mustard (SINAR); compound 8 0 + CQC-m 17.5 g/ha) | % visual injury, observed (Ob) (wild mustard (SINAR); compound 8 0 + CQC-m 35 g/ha) | % visual injury, observed (Ob) (wild mustard (SINAR); compound 8 0 + CQC-m 70 g/ha) | % visual injury, Ob ([1]; compound 0, CQC-m 4.375 g/ha) | % visual injury, Ob ([1]; compound 0, CQC-m 8.75 g/ha)
